Data set [1] concerns metastatic pulmonary osteosarcoma. The experiment in a line: Aerosol treatment of dog with metastatic pulmonary osteosarcoma. The format is in vivo. As to conditions: control dogs (n=50), gemcitabine alone. How it is done:
A dog with extensive metastatic pulmonary osteosarcoma was treated with 60% perflubron emulsion (PFCE) containing 9 mg/mL gemcitabine (GCB) (PFCE-GCB=1000 mg GCB in 110 mL 60% perflubron emulsion). Aerosolized PFCE-GCB was delivered to the lungs of the dog twice weekly using an AeroTech™ II nebulizer (Biodex Medical Systems, Inc., Shirley, NY).
Treatment was discontinued at 6 months.
Control dogs (n=50) received gemcitabine alone.

The conditions of data set [2]: oral (drink); cited from earlier work.

Each structure is given as a SMILES string.

Turning to `Nc1ccn([C@@H]2O[C@H](CO)[C@@H](O)C2(F)F)c(=O)n1` [gemcitabine], the durable tumor eradication result in data set [1] is “tumors returned in all control cases”. Turning to `COC(=O)c1ccc2c(c1)NC(=O)/C2=C(\Nc1ccc(N(C)C(=O)CN2CCN(C)CC2)cc1)c1ccccc1` [nintedanib], the fraction absorbed in data set [2] is listed as 5%.

Values taken from patent publication US12239719B2, “Fluorochemical targeted therapies” (MT RESEARCH, LLC, priority 2016, dated 2025).
